As a reminder, the IC50 is the concentration that inhibits the measured activity by half. Read a high IC50 as weaker potency in that assay.

This passage reports IC50 results from patent US20240383898A1, “PYRIDO RING COMPOUND, PREPARATION METHOD THEREFOR, INTERMEDIATE, COMPOSITION, AND APPLICATION” (YIYOU BIOTECH (SHANGHAI) CO., LTD, priority 2021, published 2024).

The target in one assay is T1, JAK1 (Homo sapiens, UniProt P23458).
T1 construct: purchased Carna 08-114
The experiment in a line: In vitro activity test of JAK1 kinase (Caliper EZ Reader conversion assay). The class given is biochemical. The conditions noted are these: enzyme activity, 10 concentrations from 1000 nM, 3-fold dilution. The procedure, abridged: (§1)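 JAK1 or JAK2 pre-incubated with compound (top 1000 nM, 3-fold, 10 points, duplicate) for 10 min at room temperature, then ATP plus substrate added. Substrate conversion read by mobility-shift on Caliper EZ Reader after stop solution. Inhibition normalized to no-enzyme and DMSO controls; IC50 from variable-slope four-parameter fit.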

The target of the next assay is T2, JAK2 (Homo sapiens, UniProt O60674).
T2 construct: purchased Carna 08-045
T2 sequence (O60674 whole entry, species assumed): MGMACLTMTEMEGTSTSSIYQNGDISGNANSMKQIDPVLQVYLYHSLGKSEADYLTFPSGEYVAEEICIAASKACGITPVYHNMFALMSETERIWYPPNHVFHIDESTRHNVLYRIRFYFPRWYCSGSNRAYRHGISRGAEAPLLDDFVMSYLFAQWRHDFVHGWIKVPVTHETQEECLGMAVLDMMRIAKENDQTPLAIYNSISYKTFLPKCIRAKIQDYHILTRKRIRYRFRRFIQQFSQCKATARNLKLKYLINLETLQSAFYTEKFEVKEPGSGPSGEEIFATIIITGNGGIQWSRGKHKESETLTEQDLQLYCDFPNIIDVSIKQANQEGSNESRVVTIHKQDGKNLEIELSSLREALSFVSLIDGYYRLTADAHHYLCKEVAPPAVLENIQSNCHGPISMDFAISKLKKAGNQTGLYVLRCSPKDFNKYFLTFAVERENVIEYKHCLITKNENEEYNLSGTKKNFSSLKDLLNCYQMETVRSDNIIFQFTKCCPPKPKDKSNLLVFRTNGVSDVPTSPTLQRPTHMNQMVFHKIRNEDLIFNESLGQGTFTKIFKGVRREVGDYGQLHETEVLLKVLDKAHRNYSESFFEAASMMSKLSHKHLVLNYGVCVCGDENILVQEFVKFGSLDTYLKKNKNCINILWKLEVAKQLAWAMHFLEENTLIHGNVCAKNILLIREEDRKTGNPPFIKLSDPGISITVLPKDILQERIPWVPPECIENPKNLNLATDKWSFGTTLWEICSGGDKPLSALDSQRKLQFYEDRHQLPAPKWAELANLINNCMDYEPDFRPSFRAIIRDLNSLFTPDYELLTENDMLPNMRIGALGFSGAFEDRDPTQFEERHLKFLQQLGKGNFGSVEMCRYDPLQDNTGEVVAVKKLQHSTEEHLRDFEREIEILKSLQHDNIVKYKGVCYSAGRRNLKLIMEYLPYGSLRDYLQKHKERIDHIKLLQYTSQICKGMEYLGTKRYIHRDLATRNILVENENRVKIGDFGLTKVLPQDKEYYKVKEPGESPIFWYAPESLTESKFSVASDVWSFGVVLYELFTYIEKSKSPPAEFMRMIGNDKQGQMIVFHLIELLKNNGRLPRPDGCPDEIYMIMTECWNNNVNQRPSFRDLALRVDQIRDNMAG
The experiment in a line: In vitro activity test of JAK2 kinase (Caliper EZ Reader conversion assay). The class given is biochemical. Particulars: enzyme activity, 10 concentrations from 1000 nM, 3-fold dilution. Put shortly: as §1

T1 sequence (P23458 whole entry, species assumed): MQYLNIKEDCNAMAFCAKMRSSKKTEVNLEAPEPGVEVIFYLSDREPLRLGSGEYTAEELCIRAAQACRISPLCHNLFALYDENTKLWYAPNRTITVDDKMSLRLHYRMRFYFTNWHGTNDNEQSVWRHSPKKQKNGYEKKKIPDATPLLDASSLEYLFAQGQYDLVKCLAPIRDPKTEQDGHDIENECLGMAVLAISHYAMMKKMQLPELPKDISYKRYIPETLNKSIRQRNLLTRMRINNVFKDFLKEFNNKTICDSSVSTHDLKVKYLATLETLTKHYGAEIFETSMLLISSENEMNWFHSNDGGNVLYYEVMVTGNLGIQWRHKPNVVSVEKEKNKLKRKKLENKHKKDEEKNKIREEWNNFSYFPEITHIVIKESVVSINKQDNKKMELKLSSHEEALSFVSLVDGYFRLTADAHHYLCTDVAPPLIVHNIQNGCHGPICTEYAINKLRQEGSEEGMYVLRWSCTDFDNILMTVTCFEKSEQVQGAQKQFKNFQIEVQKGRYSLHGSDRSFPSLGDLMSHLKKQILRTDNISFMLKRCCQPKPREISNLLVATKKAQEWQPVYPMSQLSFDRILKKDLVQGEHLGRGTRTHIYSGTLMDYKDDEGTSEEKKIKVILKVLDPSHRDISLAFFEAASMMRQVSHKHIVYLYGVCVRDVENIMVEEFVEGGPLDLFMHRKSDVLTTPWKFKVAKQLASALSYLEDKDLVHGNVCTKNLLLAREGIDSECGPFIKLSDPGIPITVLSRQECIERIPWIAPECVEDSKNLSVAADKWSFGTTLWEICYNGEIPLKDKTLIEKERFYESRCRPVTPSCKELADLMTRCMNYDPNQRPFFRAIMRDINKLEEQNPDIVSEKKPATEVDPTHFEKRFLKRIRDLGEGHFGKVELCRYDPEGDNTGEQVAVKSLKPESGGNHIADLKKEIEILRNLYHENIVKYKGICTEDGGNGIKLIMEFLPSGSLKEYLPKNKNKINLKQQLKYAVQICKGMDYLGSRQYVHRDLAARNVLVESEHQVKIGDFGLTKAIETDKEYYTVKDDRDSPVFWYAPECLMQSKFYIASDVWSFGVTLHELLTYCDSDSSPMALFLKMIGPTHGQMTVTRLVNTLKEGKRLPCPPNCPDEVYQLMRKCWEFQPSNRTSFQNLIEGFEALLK

As to `C[C@@H](O)c1nc2cnc3[nH]ccc3c2n1[C@H]1CCN(CCCCCF)C1` [LXS73, (R)-1-(1-((S)-1-(5-fluoropentyl)pyrrolidin-3-yl)-1,6-dihydroimidazo[4,5-d]pyrrolo[2,3-b]pyridin-2-yl) ethanol], the results for the IC50 against JAK1 and against JAK2 were below 10 nM and 100 to 1000 nM, respectively.

Turning to `N#CCN1CCC(n2c(-c3cccc(O)c3)nc3cnc4[nH]ccc4c32)C1` (stereo not shown) [LXSS3, 2-(3-(2-(3-Hydroxyphenyl)imidazo[4,5-d]pyrrolo[2,3-b]pyridin-1(6H)-yl)pyrrolidin-1-yl)acetonitrile], the IC50 at JAK1 and against JAK2 was 10 to 100 nM each time.
